Measurements published in patent publication US6203822A, “Gallium-containing compounds for the treatment of infections caused by intracellular pathogens and pathogens causing chronic pulmonary infection” (priority 1996, dated 2001).

Tested on: M. tuberculosis strain H37Ra
Test: Radiometric BACTEC growth index assay of M. tuberculosis in broth culture, gallium nitrate
Format: cell-based
Conditions: BACTEC 12B
Description: FIG. 1 provides histograms that illustrate the inhibitory effect of gallium nitrate on M. tuberculosis in broth culture. […] FIG. 1B illustrates the results of experiments to inhibit M. tuberculosis strain H37Ra in broth culture over the range of 0 to 1040 μM concentrations gallium nitrate.
Example 1 details methods for performing the growth index assays of this invention to detect the growth of pathogenic organisms including M. tuberculosis in suspension culture. There are a number of suspension culture methods known in the art. As an example of a suspension assay, M. tuberculosis growth and gallium nitrate inhibition were quantitated using the radiometric BACTEC 460TB system (Becton Dickinson Diagnostic Instrument Systems, Sparks, Md.). […] While this and other examples are directed to the inhibition of Mycobacteria, those skilled in the art will recognize that the assays are readily adaptable to the quantitation of other intracellular bacterial pathogens capable of infecting phagocytic cells. Growth inhibition of parasites or fungi can also be readily assessed by introducing the gallium-containing compounds into cultures of the organisms under standard growth conditions.
Lyophilized M. tuberculosis Erdman strain (ATCC #35801) and H37Ra (ATCC #25177) were reconstituted in pyogen-free water (Sigma, St. Louis, Mo.), plated on 7H11 agar plates, incubated at 37° C. in 5% CO2, 95% air, and after 14 days of culture, harvested and frozen in 7H9 broth at -70° C. […] An aliquot of this suspension was diluted in formalin, counted and diluted to appropriate concentrations for use in experiments. […] The figures illustrate the recorded numbers from bottles on different days which correlate with growth index readings for the various concentrations of gallium nitrate at Day 6.
The BACTEC system (Becton Dickinson, Sparks, Md.) is an instrument to quantitate bacterial growth. […] During quantitation in the BACTEC instrument, the gas is aspirated from the vial and the ^14 CO2 radioactivity is determined on a scale from 0 to 999. […]

O=[N+]([O-])[O-].O=[N+]([O-])[O-].O=[N+]([O-])[O-].[Ga+3] [gallium nitrate]
inhibition of growth: markedly inhibits the growth of M. tuberculosis | concentration with marked inhibition of growth (radiometric): approximately 100 μM | concentration with statistically significant inhibition of growth (radiometric): 16.25 µM
